Values quoted from earlier work in article PMC3600422 (Journal of molecular biology, 2012).

Assays:
[1] = test system: Mcl-1
[2] = test system: small cell lung carcinoma; conditions: mouse models
[3] = test system: Bfl-1
[4] = test system: cancer cells; conditions: Mcl-1 or Bfl-1 overexpressed

CN(C)CC[C@H](CSc1ccccc1)Nc1ccc(S(=O)(=O)NC(=O)c2ccc(N3CCN(Cc4ccccc4-c4ccc(Cl)cc4)CC3)cc2)cc1[N+](=O)[O-] [ABT-737]
Binding to Mcl-1 [1]: do not bind to Mcl-1
Tumor regression [2]: can regress or eliminate small cell lung carcinoma
Binding to Bfl-1 [3]: do not bind to Mcl-1 or Bfl-1
Inducing death in cancer cells [4]: ineffective in inducing death in cancer cells when these anti-apoptotic proteins are overexpressed
